Values quoted from earlier work as cited in US6359007B1 (ChronoRX, LLC, priority 1999, dated 2002).
Read-outs that look alike come from different tables or passages of the source.

Assays:
[1] = in vivo
[2] = stomach in the "fed" state
[3] = per meal, curvilinear falloff
[4] = not given; remark: listed apart in the source

SMILES: O=C1O[C@H]([C@@H](O)CO)C(O)=C1O [AA, ascorbic acid]
- mean steady state plasma concentration (daily oral dose 200 mg): 12 mg/L
- mean steady state plasma concentration (daily oral dose 2500 mg): 15 mg/L

SMILES: [Cu+2] [Cu^+2, Copper]
- Absorption (via carrier-mediated transport) [1]: 30-40%
- absorption of ingested Cu^+2 [1]: 30-40%

SMILES: N=C(N)NCCC[C@H](N)C(=O)O [L-arginine]
- gastrointestinal uptake of dietary arginine [2]: about 38%

SMILES: [Mg+2] [Mg^+2, Magnesium]
- maximum bolus absorption [3]: 8 meq

SMILES: [Zn+2] [Zn^+2, Zinc]
- increase of mean plasma Zn^+2 above pre-load levels ([4]; 11-fold increase in Zn^+2 intake): About 37%
- Zn^+2 absorption ([4]; in vivo): 40% to 86
- ingested Zn^+2 entering the plasma ([4]; in vivo): About 37%
- time by which gastrointestinal absorption is essentially complete ([4]; in vivo): ≤ 4 h
